Test: gradient 5% acetonitrile 3 min, to 50% in 2 min, to 85% in 15 min, held 3 min, 100 µL/min
Details: column: Zorbax Extend-C18 2.1 x 50 mm; eluents: water / acetonitrile, 0.1% formic acid
In short: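 Values are retention times taken from adduct peaks that software picked and an analyst inspected. The pure standards were run as mixtures of ~100 molecules on HPLC linked to a quadrupole time-of-flight mass spectrometer, in positive and negative ionization mode. A Zorbax Extend-C18 column (2.1 × 50 mm, 1.8 μm) was used at 100 μL/min with water and acetonitrile, each including 0.1% formic acid.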

RP-LC retention time | SMILES
843 s | CCOC(=O)C1CCN(c2nc(=O)n(CC(=O)Nc3ccc(C)cc3)c3ccccc23)CC1
652 s | Cc1ccc2oc(C(=O)NCc3c(F)cccc3F)cc2n1
646 s | Cc1nc(CC(=O)N2CCC(C(N)=O)CC2)cs1
683 s | COCCCNC(=O)CSc1nccc2c1ccn2Cc1ccccc1
621 s | O=S(=O)(c1ccc2c(c1)OCCO2)N1CCCn2nc(-c3cccnc3)cc2C1
778 s | COc1ccc(N2C=C(C(=O)N3CCOCC3)S(=O)(=O)c3ccc(F)cc32)cc1
955 s | Cc1cccc(-c2noc(C3CCCN3C(=O)NC3CCCC3)n2)c1 (centres undefined)
666 s | CCc1nnc([C@@H]2CC(F)(F)CN2C(=O)CCn2nc(C)cc2C)o1
1020 s | CCc1ccc(C2=Nc3cccnc3N(CC(=O)Nc3ccc4c(c3)OCCO4)C(=O)C2)cc1
899 s | CCn1c(=O)sc2cc(S(=O)(=O)N3CCC(C(=O)Nc4ccccc4F)CC3)ccc21
662 s | Cc1cnc(C(=O)N[C@@H]2CCC[C@@H]2C(=O)NCc2ccc3c(c2)OCO3)cn1
722 s | O=C(c1ccc2c(c1)OCO2)N1CCCCC1
846 s | Cc1ccc(F)cc1S(=O)(=O)N1CCc2c(c(-c3nnc(-c4ccccc4)o3)nn2C)C1
1010 s | CC1CCN(C(=O)C2=NN(Cc3ccccc3)c3ccccc3S2(=O)=O)CC1
732 s | Cc1c(Cl)cccc1S(=O)(=O)N1CCN(c2nc3ccncc3n(C)c2=O)CC1
722 s | COc1ccc(NC(=O)c2ccc3nc(-c4ccccc4)cn3c2)c(OC)c1
856 s | O=C(NCCC1CCN(S(=O)(=O)c2ccccc2)CC1)Nc1ccccc1
557 s | COc1ccccc1OCC(=O)NCC1(c2cccs2)CCCC1
813 s | COc1ccc(-c2nnc(-c3cccc(S(=O)(=O)N4CCOCC4)c3)o2)cc1OC
1180 s | CCC(C)n1c(=O)c2ccccc2n(Cc2nc(-c3cc(OC)cc(OC)c3)no2)c1=O (centres undefined)
1120 s | CCn1c(C(=O)NCc2ccc3c(c2)OCO3)cc2c(-c3cccs3)nn(-c3ccccc3)c21
649 s | COCCNC(=O)c1ccc2c(c1)CCCN2S(C)(=O)=O
549 s | Cn1ccnc1SCC(=O)c1ccc([N+](=O)[O-])cc1

RP-LC retention time | SMILES
966 s | O=C(CCC1CCCN(S(=O)(=O)c2ccccc2F)C1)NCc1cc(F)ccc1F (centres undefined)
676 s | CN(C)C(=O)CSc1nnc(-c2ccc3c(c2)OCCCO3)n1C1CC1
736 s | CCNC(=O)C1CCN(S(C)(=O)=O)c2cc(Cl)ccc2O1 (centres undefined)
736 s | O=C(Nc1ccccc1C(F)(F)F)N1CCCC1c1nncn1-c1ccccc1 (centres undefined)
595 s | CC(CCNC(=O)Cn1c2ccccc2c2cnn(C)c(=O)c21)N1CCCC1 (centres undefined)
972 s | CCc1c(C)nc2nc(-c3ccccc3)nn2c1Nc1cc(OC)ccc1OC
740 s | CN(C(=O)CN1C(=O)NC2(CCCCC2)C1=O)c1ccccc1
734 s | COc1cc(=O)n2c(c1C(=O)NC1CCCCCCC1)CCCC2
584 s | CCN1CCC2(CC1)N=C(c1ccccc1)CC(c1cccc(OC)c1O)N2 (centres undefined)
1010 s | Cc1ccc(S(=O)(=O)N2CCCC2)cc1-c1nnc(-c2ccccc2)o1
1020 s | CC(C)c1noc(-c2cc(=O)n(CC(=O)Nc3ccc(F)cc3F)c3ccccc23)n1
676 s | COc1ccc(C)cc1NC(=O)NCCc1cn(C)c2ncccc12
910 s | Cc1ccc(-n2nc(N3CCCN(S(=O)(=O)c4ccccc4C)CC3)ccc2=O)cc1
857 s | O=C(CC(c1ccccc1)c1ccccc1)N(Cc1ccsc1)Cc1ccccn1
927 s | CCn1c(=O)c(N2CCN(C(=O)NCc3ccc(C)cc3)CC2)nc2ccccc21
875 s | O=C(O)c1cnc(NCc2cccnc2)nc1-c1cccnc1
700 s | COc1ccc(N2CCN(c3nc4ccc(C)cc4cc3-c3noc(C)n3)CC2)cc1
712 s | COc1ccc(C(=O)N2CC(n3cc(COCC4CC4)nn3)C2)cc1
657 s | Cc1ccn2c(NC(=O)C3CCCCC3)c(-c3ccc(F)cc3)nc2c1
576 s | CCCN1CCN(C(=O)CC2Sc3ncccc3N(C)C2=O)CC1 (centres undefined)
1060 s | CCn1cc(-c2nc(C(=O)NCc3cccc(C)c3)cs2)c2cccnc21
971 s | O=C1COc2ccccc2N1Cc1nc(-c2ccccc2)no1
984 s | CCOc1ccc(-c2noc(Cn3c(=O)n(CC)c(=O)c4ccccc43)n2)cc1OC

RP-LC retention time | SMILES
875 s | COc1ccccc1N1CCN(c2cc(SCC(=O)NC3CCCCC3)ncn2)CC1
585 s | Cc1ccc(NC(=O)CN2CCC(C(=O)NCc3c(F)cccc3F)CC2)c(C)c1
620 s | Cc1ccc2oc(N3CCN(C(=O)Cc4ccccc4)CC3)nc2n1
983 s | Cc1ccc(CNC(=O)c2nc(Cn3c(=O)oc4ccc(Cl)cc43)no2)cc1
911 s | CCOC(=O)c1nc(Nc2cc(OC)ccc2OC)c2ccccc2n1
938 s | Cc1ccc(-c2cc3c(N4CCCC(C(=O)NCc5ccc6c(c5)OCO6)C4)nccn3n2)c(C)c1 (centres undefined)
550 s | Cc1nc2ccccc2n1Cc1nnc2sc(-c3cccnc3)nn12
910 s | Cc1ccc(CNC(=O)C2(C)CCCN(C(=O)NCCC(C)C)C2)cc1 (centres undefined)
757 s | O=C(Nc1nnc(-c2ccno2)o1)C1CCCN(S(=O)(=O)c2ccc(Cl)s2)C1 (centres undefined)
811 s | CCOc1ccc(C(Nc2ccccn2)c2ccc3ccc(C)nc3c2O)cc1C (centres undefined)
874 s | Cc1ccc(N2CCC(NC(=O)NCc3ccc(F)cc3)C2=O)cc1C (centres undefined)
1070 s | CCCn1cc(C2=CCN(S(=O)(=O)Cc3ccccc3)CC2)c2cccnc21
849 s | O=C(NCc1cccs1)c1nnc(-c2ccc(S(=O)(=O)N3CCCC3)cc2)o1
605 s | Cc1ccccc1-c1ccc(N2CCC(C(=O)NCc3ccco3)CC2)nn1
659 s | CC1=C(C(=O)N2CCOCC2)C(c2ccc(F)c(Br)c2)C2=C(CCCC2=O)N1 (centres undefined)
1160 s | CCc1ccc(NC(=O)Cn2nc(N3CCCC(C)C3)c3ccccc3c2=O)cc1 (centres undefined)
684 s | Cc1ccc(S(=O)(=O)N2CC=C(N)N2)cc1
726 s | O=C(NCc1ccco1)c1nnn(-c2ccc(F)cc2)c1-c1ccncc1
990 s | COC(=O)c1ccc(NC(=O)c2csc(-c3cn(C)c4ncccc34)n2)cc1
786 s | CCOC(=O)c1cc2n(n1)CC(C)(C(=O)NCc1ccc(C)cc1)N(C1CC1)C2=O (centres undefined)
602 s | CCN1CCN(c2ccc3nnc(CCc4nc(-c5ccc(F)cc5)no4)n3n2)CC1
856 s | Cc1nc(N2CCN(c3ccccn3)CC2)nc2c1C(=O)CC(/C=C/c1ccccc1)C2 (centres undefined)
915 s | Cc1ccc2c(c1)C(C)(C)C(=O)N2CC(=O)NCc1ccc(F)cc1

RP-LC retention time | SMILES
679 s | CCN(CC)C(=O)c1ccc(-c2nc3cc(NS(=O)(=O)c4cccs4)ccc3n2C)cc1
1160 s | CCCN1C(=O)COc2ccc(-c3noc(C(C)Oc4ccccc4)n3)cc21 (centres undefined)
1030 s | Cc1ccc(Cl)cc1NS(=O)(=O)c1ccc2onc(C(=O)N3CCCC3)c2c1
714 s | CC(=O)Nc1nc2ccc(CC(=O)Nc3ccc(F)cc3)cc2s1
616 s | COc1cccc(NC(=O)N2CCN(c3cnn4c(C)nnc4c3)CC2)c1
730 s | Cc1ccc(C)c(NC(=O)Cn2nc3c(N4CCCCCC4)nccn3c2=O)c1
660 s | Cn1c(NC(=O)c2ccc(Cl)cc2)cc(=O)n(C)c1=O
807 s | Cc1ccc(CC(=O)NC2CCN(c3cc(-c4ccc(Cl)cc4)[nH]n3)C2)cc1 (centres undefined)
573 s | CCC(=O)N1CCc2c(sc3ncnc(NCc4cccnc4)c23)C1
662 s | CC(C)CCN1CCC(N2CCN(S(=O)(=O)c3ccc(F)cc3)CC2)C1=O (centres undefined)
739 s | CCOC(=O)c1[nH]c(C)c(C(=O)N2CCC(CC(=O)N3CCCCCC3)CC2)c1C
1000 s | Cc1cc(-c2nnc(-c3ccc(F)cc3)o2)c(C)n1CC(=O)N(C)Cc1ccccc1
746 s | CCOC(=O)Cn1c(C2CC(=O)N(c3ccccc3F)C2)nc2ccccc21 (centres undefined)
788 s | CCOC(=O)c1c(C)[nH]c(CCC(=O)NCCc2ccco2)c1C
716 s | Cc1noc2nc(C)n(CC(=O)NCc3ccccc3)c(=O)c12
1020 s | CC(C)Oc1ccc(-c2noc(CN3N=NC4C(=O)N(c5ccccc5)C(=O)C43)n2)cc1 (centres undefined)
814 s | Cc1ccc(NC(=O)C2CCCN(S(=O)(=O)c3c[nH]c(C(=O)N4CCCC4)c3)C2)c(C)c1 (centres undefined)
877 s | COc1ccccc1-c1noc(-c2nc(C)no2)n1
648 s | O=C(NC1CCN(c2cc(-c3ccccc3)[nH]n2)C1)c1ccc2c(c1)OCO2 (centres undefined)
822 s | Cc1c(O)cnc2nn(-c3ccccc3)c(=N)n12

— the METLIN SMRT retention time set (Domingo-Almenara et al. 2019)
